Measurements published in paper PMC7943599, “ATP signaling in the integrative neural center of Aplysia californica” (Scientific Reports, 2021).

How the values were obtained:
[1] = molecular target: T1, AcP2X (Aplysia P2X receptor) (Aplysia californica, UniProt E2QDA7); test: two-electrode voltage clamp in Xenopus oocytes, agonist dose-response (fast component; slow component EC50 […]); format: cell-based
T1 construct: full-length CDS AcP2X (GenBank NP_001191558.1) expressed in Xenopus oocytes
T1 sequence (E2QDA7 1-434): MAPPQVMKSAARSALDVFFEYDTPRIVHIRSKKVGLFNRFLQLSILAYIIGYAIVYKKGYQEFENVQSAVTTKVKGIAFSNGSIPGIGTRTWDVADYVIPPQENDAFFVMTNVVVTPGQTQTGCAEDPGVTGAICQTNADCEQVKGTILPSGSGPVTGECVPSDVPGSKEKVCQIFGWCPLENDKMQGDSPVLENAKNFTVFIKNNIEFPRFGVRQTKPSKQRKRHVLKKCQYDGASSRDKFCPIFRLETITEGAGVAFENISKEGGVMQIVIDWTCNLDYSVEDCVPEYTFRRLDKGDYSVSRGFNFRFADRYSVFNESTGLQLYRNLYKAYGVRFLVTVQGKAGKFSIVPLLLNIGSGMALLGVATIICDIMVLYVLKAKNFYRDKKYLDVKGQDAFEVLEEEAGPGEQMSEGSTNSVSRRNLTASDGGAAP

[2] = molecular target: T1, AcP2X (Aplysia P2X receptor); test: two-electrode voltage clamp in Xenopus oocytes, inhibition of current evoked by […] ATP (fast component); format: cell-based

| IC50 [2] [µM] | Structure (SMILES) | EC50 [1] [µM] |
| --- | --- | --- |
|  | Nc1ncnc2c1ncn2[C@@H]1O[C@H](COP(=O)(O)OP(=O)(O)OP(=O)(O)O)[C@@H](O)[C@H]1O [ATP] | 306 |
| 211 | Cc1nc(/N=N/c2ccc(S(=O)(=O)O)cc2S(=O)(=O)O)c(COP(=O)(O)O)c(C=O)c1O [PPADS] |  |
